# Experimental data from patent US9376421B2, “Compounds and methods for myotonic dystrophy therapy” (The Board of Trustees of the University of Illinois, priority 2014, dated 2016).
# Assays:
# HIV FS = test: Ligand-RNA binding affinity, HIV FS; design: species or system HIV-1
# [1] = system: MBNL1-CUGexp nuclear foci in HeLa cells transfected with GFP-DT960; details: DM1 model cell cultures; cited from earlier work
# cTNT minigene splicing = details: DM1 model cell cultures; cited from earlier work
# [2] = system: Drosophila larvae expressing i(CUG)480; test: Larval crawling assay in DM1 Drosophila; assay type: in vivo; details: 400 μM; untreated i(CUG)480 9 lines/min
# Text: To test the abilities of 2 and 9 to improve the locomotor behavior of Drosophila larvae, we used crawling assays (Nichols et al., J. Vis. Exp. 61, e3795 (2012); Lanson et al., Hum. Mol. Genet. 20, 2510-2523 (2011); Batlevi et al., Proc. Natl. Acad. Sci. U.S.A. 107, 742-747 (2010)). […] Those expressing i(CUG)480 (SEQ ID NO: 17) crossed only 9 lines/min (FIG. 9b). […] Importantly, the phenotypic improvement with both compounds was dose-dependent and 9 in all cases provided greater phenotypic reversal than did 2.
# Drosophila lines were cultured in standard cornmeal medium supplemented with dry yeasts. Fly lines bearing UAS-(CTG)60 (SEQ ID NO: 5) and UAS-(CTG)480 (SEQ ID NO: 6) were kind gifts of Prof. Rubén Artero Allepuz (Universitat de València, Estudi General, Spain). The gmr-GAL4 and 24B-GAL4 lines were used to drive UAS transgene expression in eye and muscles respectively. Ligands 2 and 9 were dissolved in ddH2O and mixed with fly food. […]
# Larval crawling assays were performed as described in Lanson et al (Hum. Mol. Genet. 20, 2510-2523 (2011)). […] The larvae were allowed to acclimate for a period of 1 min, and the total number of gridlines that the posterior end of the larvae passed in 1 min was determined Each set of experiment was repeated independently three times using larvae collected from separate genetic crosses.
# [3] = system: SV40 terminator mRNA in i(CUG)60 larvae; test: SV40 mRNA level in i(CUG)60 larvae (real-time PCR); assay type: in vivo, Drosophila; details: 400 μM
# d(CAG)12 = test: Isothermal titration calorimetry, d(CAG)12; assay type: binding; details: 25° C., 20 mM MOPS pH 7.0, 300 mM NaCl
# Method: (§1) To directly assess the DNA-targeting ability of 9, ITC experiments were performed with oligonucleotide analogs of the various trinucleotide repeat sequences (Table 1). […] This supports the idea that 9 inhibits the transcription of CTG^exp by stabilizing its hairpin structure. […] The in vitro transcription experiment using (CTG[…]CAG)74 (SEQ ID NOS 3-4, respectively) and compounds 2, 5-7, and 9 was repeated but with (CUG)16 (SEQ ID NO: 1) added as a competitor.
# (§2) Isothermal titration calorimetry (ITC) measurements were performed at 25° C. on a MicroCal VP-ITC (MicroCal, Inc., Northampton, Mass.). A standard experiment consisted of titrating 10 μL of a 500 μM ligand solution from a […] syringe (rotating at 300 rpm) into a sample cell containing 1.42 mL of a 10 μM DNA or RNA solution. An ITC experiment consisted of 28 total injections (first injection was 5 μL, subsequent injections were 10 μL), with a 10 s duration per injection and delay of 380 s between injections. The initial delay prior to the first injection was 300 s. To derive the heat associated with each injection, the area under each isotherm (microcalories per second versus seconds) was determined by integration by the graphing program Origin 7.0 (MicroCal, Inc. Northampton, Mass.). […]
# d(CTG.CAG)12 = test: Isothermal titration calorimetry, d(CTG.CAG)12; assay type: binding; details: 25° C., 20 mM MOPS pH 7.0, 300 mM NaCl
# Method: as §1, §2
# cTNT32 = test: Ligand-RNA binding affinity, cTNT32
# (CUG)n = test: Ligand-RNA binding affinity, (CUG)n
# Text: Off target activity is a concern for any therapeutic agent but especially one designed to cleave RNA. To test the selectivity of agents 6 and 9, the screening gel assay described above was applied to other RNA targets, specifically cTNT32, (CCUG)8 (SEQ ID NO: 11), and HIV-1 frameshift site RNA (HIV FS) (FIG. 5a). Both 6 and 9 were quite selective. […] Thus, both similarly adopt stem-loop structures with internal loops within the stem, although obviously of different sequences. Differences between 6 and 9 were observed (FIG. 5) with the former cleaving (CCUG)8 (SEQ ID NO: 11), the toxic RNA involved in myotonic dystrophy type 2 (DM2). […] The ability to process the RNA directly parallels the corresponding ligand-RNA binding affinities. Thus, 1, which contains the acridine-triazine core of agent 6, complexes the (CCUG)6 (SEQ ID NO: 12) and (CUG)n sequences.
# [4] = system: insulin receptor (IR) minigene splicing; details: DM1 model cell cultures; cited from earlier work
# [5] = cited from earlier work
smiles,measurement,setting,value
N=C(NCCCCNc1nc(N)nc(N)n1)c1ccc(C(=N)NCCCCNc2nc(N)nc(N)n2)cc1 [Ligand 2],affinity toward HIV FS,HIV FS,no affinity
same,dissolution of MBNL1-CUGexp nuclear foci (earlier work),[1],dissolved the MBNL1-CUG^exp nuclear foci
same,rescue of splicing defect of cTNT minigene (earlier work),cTNT minigene splicing,partially rescued
same,average crawling speed,[2],ca. 13 lines/min
same,SV40 mRNA levels in larvae having i(CUG)60,[3],no change
same,binding affinity toward d(CAG)12 by ITC,d(CAG)12,lack of binding affinity
same,binding affinity toward d(CTG.CAG)12 by ITC,d(CTG.CAG)12,lack of binding affinity
same,affinity toward cTNT32,cTNT32,no affinity
same,complexation of (CUG)n,(CUG)n,complexes
same,rescue of splicing defect of IR minigene (earlier work),[4],partially rescued
same,water solubility in comparison to 1,[5],higher water solubility
